Measured values reported in PubChem BioAssay (NCI).
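Tested at 5 concentrations; 48 h exposure; 96-well plates; endpoints linearly interpolated, else capped at highest concentration. The concentration for 50% growth inhibition is given as GI50. TGI is the concentration that stops growth completely.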

What was measured:
Test in all cases: NCI anticancer screen, dose series, 48 h
786-0 renal = tested on: 786-0 renal
A498 renal = tested on: A498 renal
A549 NSCLC = tested on: A549 NSCLC
ACHN renal = tested on: ACHN renal
BT-549 breast = tested on: BT-549 breast
CAKI-1 renal = tested on: CAKI-1 renal
CCRF-CEM leukemia = tested on: CCRF-CEM leukemia
COLO 205 colon = tested on: COLO 205 colon
DU-145 prostate = tested on: DU-145 prostate
EKVX NSCLC = tested on: EKVX NSCLC
HCC-2998 colon = tested on: HCC-2998 colon
HCT-116 colon = tested on: HCT-116 colon
HCT-15 colon = tested on: HCT-15 colon
HL-60(TB) leukemia = tested on: HL-60(TB) leukemia
HOP-62 NSCLC = tested on: HOP-62 NSCLC
HOP-92 NSCLC = tested on: HOP-92 NSCLC
HS 578T breast = tested on: HS 578T breast
HT29 colon = tested on: HT29 colon
IGROV1 ovarian = tested on: IGROV1 ovarian
K-562 leukemia = tested on: K-562 leukemia
KM12 colon = tested on: KM12 colon
LOX IMVI melanoma = tested on: LOX IMVI melanoma
M14 melanoma = tested on: M14 melanoma
MALME-3M melanoma = tested on: MALME-3M melanoma
MCF7 breast = tested on: MCF7 breast
MDA-MB-231 breast = tested on: MDA-MB-231 breast
MDA-MB-435 = tested on: MDA-MB-435
MOLT-4 leukemia = tested on: MOLT-4 leukemia
NCI-H226 lung = tested on: NCI-H226 lung
NCI-H23 lung = tested on: NCI-H23 lung
NCI-H460 lung = tested on: NCI-H460 lung
NCI-H522 lung = tested on: NCI-H522 lung
NCI/ADR-RES ovarian = tested on: NCI/ADR-RES ovarian
OVCAR-3 ovarian = tested on: OVCAR-3 ovarian
OVCAR-4 ovarian = tested on: OVCAR-4 ovarian
OVCAR-5 ovarian = tested on: OVCAR-5 ovarian
OVCAR-8 ovarian = tested on: OVCAR-8 ovarian
PC-3 prostate = tested on: PC-3 prostate
RPMI-8226 leukemia = tested on: RPMI-8226 leukemia
RXF 393 renal = tested on: RXF 393 renal
SF-268 CNS = tested on: SF-268 CNS
SF-295 CNS = tested on: SF-295 CNS
SF-539 CNS = tested on: SF-539 CNS
SK-MEL-2 melanoma = tested on: SK-MEL-2 melanoma
SK-MEL-28 melanoma = tested on: SK-MEL-28 melanoma
SK-MEL-5 melanoma = tested on: SK-MEL-5 melanoma
SN12C renal = tested on: SN12C renal
SNB-19 CNS = tested on: SNB-19 CNS
SNB-75 CNS = tested on: SNB-75 CNS
SR leukemia = tested on: SR leukemia
SW-620 colon = tested on: SW-620 colon
T-47D breast = tested on: T-47D breast
TK-10 renal = tested on: TK-10 renal
U251 CNS = tested on: U251 CNS
UACC-257 melanoma = tested on: UACC-257 melanoma
UACC-62 melanoma = tested on: UACC-62 melanoma
UO-31 renal = tested on: UO-31 renal

Compound: CCN(CC)CCn1c(=O)c2cc(OC)c(OC)cc2c2ccc3cc4c(cc3c21)OCO4
- GI50 (786-0 renal): 0.479 µM
- TGI (786-0 renal): 13.4 µM
- GI50 (A498 renal): 0.15 µM
- TGI (A498 renal): 0.655 µM
- GI50 (A549 NSCLC): 0.725 µM
- TGI (A549 NSCLC): 8.53 µM
- GI50 (ACHN renal): 0.266 µM
- TGI (ACHN renal): 12 µM
- GI50 (BT-549 breast): 0.456 µM
- TGI (BT-549 breast): 17.2 µM
- GI50 (CAKI-1 renal): 0.222 µM
- TGI (CAKI-1 renal): 15.1 µM
- GI50 (CCRF-CEM leukemia): 0.0824 µM
- TGI (CCRF-CEM leukemia): > 33.6 µM
- GI50 (COLO 205 colon): 0.192 µM
- TGI (COLO 205 colon): 16.4 µM
- GI50 (DU-145 prostate): 0.321 µM
- TGI (DU-145 prostate): 6.93 µM
- GI50 (EKVX NSCLC): 12.2 µM
- TGI (EKVX NSCLC): 29.4 µM
- GI50 (HCC-2998 colon): 2.57 µM
- TGI (HCC-2998 colon): 25.7 µM
- GI50 (HCT-116 colon): 0.377 µM
- TGI (HCT-116 colon): 6.2 µM
- GI50 (HCT-15 colon): 1.61 µM
- TGI (HCT-15 colon): 10.3 µM
- GI50 (HL-60(TB) leukemia): 0.721 µM
- TGI (HL-60(TB) leukemia): 3.16 µM
- GI50 (HOP-62 NSCLC): 0.246 µM
- TGI (HOP-62 NSCLC): 13.8 µM
- GI50 (HOP-92 NSCLC): 0.49 µM
- TGI (HOP-92 NSCLC): > 50 µM
- GI50 (HS 578T breast): 12.4 µM
- TGI (HS 578T breast): 45.4 µM
- GI50 (HT29 colon): 0.195 µM
- TGI (HT29 colon): 6.16 µM
- GI50 (IGROV1 ovarian): 0.491 µM
- TGI (IGROV1 ovarian): 21.4 µM
- GI50 (K-562 leukemia): 0.536 µM
- GI50 (KM12 colon): 0.734 µM
- TGI (KM12 colon): 23.9 µM
- GI50 (LOX IMVI melanoma): 0.139 µM
- TGI (LOX IMVI melanoma): 0.584 µM
- GI50 (M14 melanoma): 0.278 µM
- TGI (M14 melanoma): 12.7 µM
- GI50 (MALME-3M melanoma): 0.354 µM
- TGI (MALME-3M melanoma): 14.5 µM
- GI50 (MCF7 breast): 0.0607 µM
- TGI (MCF7 breast): 24.8 µM
- GI50 (MDA-MB-231 breast): 1.29 µM
- TGI (MDA-MB-231 breast): 3.66 µM
- GI50 (MDA-MB-435): 0.795 µM
- TGI (MDA-MB-435): 20.9 µM
- GI50 (MOLT-4 leukemia): 0.0715 µM
- TGI (MOLT-4 leukemia): 3.72 µM
- GI50 (NCI-H226 lung): 0.446 µM
- TGI (NCI-H226 lung): > 50.6 µM
- GI50 (NCI-H23 lung): 0.348 µM
- TGI (NCI-H23 lung): 11.6 µM
- GI50 (NCI-H460 lung): 0.0766 µM
- TGI (NCI-H460 lung): 1.41 µM
- GI50 (NCI-H522 lung): 0.151 µM
- TGI (NCI-H522 lung): 21 µM
- GI50 (NCI/ADR-RES ovarian): 0.42 µM
- TGI (NCI/ADR-RES ovarian): 43.9 µM
- GI50 (OVCAR-3 ovarian): 7.57 µM
- TGI (OVCAR-3 ovarian): 25.5 µM
- GI50 (OVCAR-4 ovarian): 0.477 µM
- TGI (OVCAR-4 ovarian): 19.9 µM
- GI50 (OVCAR-5 ovarian): 8.21 µM
- TGI (OVCAR-5 ovarian): 36.1 µM
- GI50 (OVCAR-8 ovarian): 0.922 µM
- TGI (OVCAR-8 ovarian): 48.9 µM
- GI50 (PC-3 prostate): 0.799 µM
- TGI (PC-3 prostate): 99.7 µM
- GI50 (RPMI-8226 leukemia): 0.436 µM
- TGI (RPMI-8226 leukemia): 4.56 µM
- GI50 (RXF 393 renal): 0.448 µM
- TGI (RXF 393 renal): 17.2 µM
- GI50 (SF-268 CNS): 0.228 µM
- TGI (SF-268 CNS): 37.8 µM
- GI50 (SF-295 CNS): 0.0907 µM
- TGI (SF-295 CNS): 2.54 µM
- GI50 (SF-539 CNS): 0.253 µM
- TGI (SF-539 CNS): 0.818 µM
- GI50 (SK-MEL-2 melanoma): > 100 µM
- TGI (SK-MEL-2 melanoma): > 100 µM
- GI50 (SK-MEL-28 melanoma): 12 µM
- TGI (SK-MEL-28 melanoma): 24.8 µM
- GI50 (SK-MEL-5 melanoma): 0.193 µM
- TGI (SK-MEL-5 melanoma): 0.457 µM
- GI50 (SN12C renal): 0.455 µM
- TGI (SN12C renal): 20.2 µM
- GI50 (SNB-19 CNS): 0.367 µM
- TGI (SNB-19 CNS): 27.2 µM
- GI50 (SNB-75 CNS): 0.305 µM
- TGI (SNB-75 CNS): 15.4 µM
- GI50 (SR leukemia): 0.0415 µM
- TGI (SR leukemia): 2.51 µM
- GI50 (SW-620 colon): 0.692 µM
- TGI (SW-620 colon): 23.2 µM
- GI50 (T-47D breast): 0.26 µM
- TGI (T-47D breast): 26.4 µM
- GI50 (TK-10 renal): 13.4 µM
- TGI (TK-10 renal): 30.3 µM
- GI50 (U251 CNS): 0.201 µM
- TGI (U251 CNS): 18.6 µM
- GI50 (UACC-257 melanoma): 0.472 µM
- TGI (UACC-257 melanoma): 22.2 µM
- GI50 (UACC-62 melanoma): 0.163 µM
- TGI (UACC-62 melanoma): 14.8 µM
- GI50 (UO-31 renal): 0.405 µM
- TGI (UO-31 renal): 17.3 µM
